According to PubChem BioAssay (NCI):
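How tested: cells in 96-well plates exposed to compound for 48 hours at five concentrations. Here, GI50 denotes the concentration required for 50% inhibition of growth. Definition used: TGI = concentration required for complete inhibition of growth.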

Each compound was assayed on HOP-62 NSCLC (assay: growth of human tumour cells (NCI), 48 h).
Work on `Cn1cc(C2=C(c3cn(CCCN=C(N)N)c4ccccc34)C(=O)NC2=O)c2ccccc21` yielded a GI50 greater than 25 µM and a TGI greater than 25 µM. In the case of `N#C/C(C(=S)Nc1ccccc1)=C1/NN=C2c3ccccc3C(=O)NN21`, the GI50 is reported as 44.4 µM and the TGI is reported as greater than 100 µM. `CC#CC(=O)Nc1ccccc1CC(c1c[nH]c2ccccc12)c1c[nH]c2ccccc12` gave a TGI of 35.9 µM. For `NCCCNCCSSCCCCS(=O)O`, the TGI was greater than 100 µM. Compound `C[C@]12CC[C@@H]3c4ccc(Oc5nc(N6CC6)nc(N6CC6)n5)cc4CC[C@H]3[C@@H]1CCC2=O` has a GI50 of 2.23 µM and a TGI of 15.4 µM. `COc1cc(C(=O)O[C@H](C(N)=O)[C@]2(C)CO2)c2ccccc2c1` showed a GI50 of 5.72 µM and a TGI of 17.9 µM. Work on `Cc1cccc(C(C)(C)C)c1NC(=O)CCc1n[nH]c(=S)o1` yielded a TGI greater than 100 µM. `CC(=O)SCCC1c2[nH]c3ccccc3c2CCN1O` (stereo not drawn) showed a TGI greater than 100 µM. `COc1ccc(S(=O)(=O)N(Cc2ccc3c(n2)C=CC(C)(C)O3)C2CCC2)cc1OC` gave a GI50 of less than 0.01 µM and a TGI of 1.29 µM. In the case of `COc1ccc2cc(C(=O)/C=C/c3cccc(OC)c3OC)ccc2c1`, the GI50 is reported as 17.4 µM and the TGI is reported as 34.5 µM. Compound `CC(C)=CC(=O)N1CCN(C(=O)C=C(C)C)CC1` has a TGI greater than 100 µM. `CCCCC/C=C/C/C=C/CCCCCCCC1=NC(C)(C)CN1C(C)C` showed a GI50 of 1.58 µM and a TGI of 3.17 µM. Compound `C[C@]12CC[C@@H]3c4ccc(O)cc4CC[C@H]3[C@@H]1CC[C@@H]2NS(=O)(=O)c1ccc(C(F)(F)F)cc1` has a GI50 of 2 µM and a TGI of 3.7 µM. `O=C(CCCSc1nc(-c2ccc(Cl)cc2)cc(-c2ccc(Cl)cc2)n1)NO` showed a GI50 of 0.618 µM and a TGI of 11.9 µM. Work on `O=C(CC(=O)N1N=C(c2ccccc2)C(N=Nc2ccc(Cl)cc2)C1=O)Nc1ccccc1Cl` (stereo not drawn) yielded a TGI of 40.6 µM.

These compounds were tested on HT29 colon (assay: growth of human tumour cells (NCI), 48 h).
`Cc1c2c(nn1-c1ccc(S(=O)(=O)/N=C3\SCC(=O)N3C(=O)c3ccccc3)cc1)-c1ccccc1CC2` was tested, and the GI50 was 63.5 µM and the TGI was greater than 100 µM. `COc1ccc(C(=O)/C=C/c2cccnc2Nc2cc(OC)c(OC)c(OC)c2)cc1` showed a GI50 of 0.38 µM and a TGI of 1.6 µM. Work on `Nc1c(-c2ccc(Br)cc2)[n+]([O-])c2ccccc2[n+]1[O-]` yielded a TGI greater than 100 µM. For `CCCCNC(=O)NS(=O)(=O)c1ccc(N2N=C(c3ccc(C)cc3C)CC2c2ccc(N(C)C)cc2)cc1` (stereo not drawn), the GI50 was 4.2 µM and the TGI was 19.9 µM. Work on `CNC=O.[O]=[Ge].[O]=[Ge].[O]=[Ge].[O]=[Ge][OH].[O]=[Ge][OH]` yielded a TGI greater than 100 µM. `N#CCCN(c1ccc(/C=C2\N=C(c3ccc(Cl)cc3)OC2=O)cc1)S(=O)(=O)c1ccccc1` was tested, and the TGI was greater than 100 µM. In the case of `Cc1cc(NS(=O)(=O)c2ccc(NC(=O)c3cccc4c(=O)c5ccccc5[nH]c34)cc2)no1`, the TGI is reported as greater than 100 µM. In the case of `COc1ccc(C2CC(=O)c3c(OC)cc(OC)cc3O2)cc1` (stereo not drawn), the GI50 is reported as greater than 100 µM and the TGI is reported as greater than 100 µM. In the case of `O=C(/C=C/c1ccccc1Cl)c1ccccc1Cl`, the TGI is reported as 41.3 µM. With `CCOC(=O)[C@H]1Nc2ccc(C)cc2C2c3ccccc3CC21` (stereo partly drawn) the TGI was greater than 100 µM. `COc1ccc(-c2nc(-c3nc4ccc(C)cc4[nH]3)c3ccccn23)cc1` showed a GI50 of 3.36 µM and a TGI greater than 100 µM. For `C[C@]12CC[C@@H]3c4ccc(O)cc4C[C@@H](CCCCCCCCCS(=O)CCCC(F)(F)C(F)(F)F)[C@H]3[C@@H]1CC[C@@H]2O` (stereo partly drawn), the GI50 was greater than 100 µM and the TGI was greater than 100 µM. Work on `N#CCCN(CCC#N)c1ccc(/C=C2\N=C(CN3C(=O)c4ccccc4C3=O)OC2=O)cc1` yielded a TGI greater than 100 µM. Work on `Cn1cc(C2=C(c3cn(CCCN=C(N)N)c4ccccc34)C(=O)NC2=O)c2ccccc21` yielded a GI50 greater than 25 µM and a TGI greater than 25 µM. `N#C/C(C(=S)Nc1ccccc1)=C1/NN=C2c3ccccc3C(=O)NN21` was tested, and the GI50 was 29.2 µM and the TGI was greater than 100 µM. In the case of `CC#CC(=O)Nc1ccccc1CC(c1c[nH]c2ccccc12)c1c[nH]c2ccccc12`, the TGI is reported as 42.5 µM. `NCCCNCCSSCCCCS(=O)O` was tested, and the TGI was greater than 100 µM. `C[C@]12CC[C@@H]3c4ccc(Oc5nc(N6CC6)nc(N6CC6)n5)cc4CC[C@H]3[C@@H]1CCC2=O` showed a GI50 of 4.39 µM and a TGI of 19.4 µM. Work on `COc1cc(C(=O)O[C@H](C(N)=O)[C@]2(C)CO2)c2ccccc2c1` yielded a GI50 of 13.7 µM and a TGI of 27.9 µM. Work on `Cc1cccc(C(C)(C)C)c1NC(=O)CCc1n[nH]c(=S)o1` yielded a TGI greater than 100 µM. Work on `CC(=O)SCCC1c2[nH]c3ccccc3c2CCN1O` (stereo not drawn) yielded a TGI greater than 100 µM. Work on `CCOC(=O)NC(=O)c1cn(CCCOC(=O)NCCCCCCNC(=O)OCCCn2c(=O)c(C(=O)NC(=O)OCC)cn(C)c2=O)c(=O)n(C)c1=O` yielded a TGI greater than 100 µM. Compound `COc1ccc(S(=O)(=O)N(Cc2ccc3c(n2)C=CC(C)(C)O3)C2CCC2)cc1OC` has a GI50 of 0.021 µM and a TGI greater than 36.6 µM. `COc1ccc2cc(C(=O)/C=C/c3cccc(OC)c3OC)ccc2c1` was tested, and the GI50 was 4.07 µM and the TGI was 17.6 µM. Compound `CCCCn1c(-c2ccc(C(=O)O/N=C(\N)c3ccc(OC)cc3)cc2)nc(-c2ccccc2)c1-c1ccccc1` has a GI50 of 2.9 µM and a TGI greater than 100 µM. `CC(C)=CC(=O)N1CCN(C(=O)C=C(C)C)CC1` showed a TGI greater than 100 µM. `CCCCC/C=C/C/C=C/CCCCCCCC1=NC(C)(C)CN1C(C)C` showed a GI50 of 1.38 µM and a TGI of 2.74 µM. Compound `C[C@]12CC[C@@H]3c4ccc(O)cc4CC[C@H]3[C@@H]1CC[C@@H]2NS(=O)(=O)c1ccc(C(F)(F)F)cc1` has a GI50 of 2.01 µM and a TGI of 3.94 µM. `O=C(CCCSc1nc(-c2ccc(Cl)cc2)cc(-c2ccc(Cl)cc2)n1)NO` showed a GI50 of 1.14 µM and a TGI of 60 µM. Compound `O=C(CC(=O)N1N=C(c2ccccc2)C(N=Nc2ccc(Cl)cc2)C1=O)Nc1ccccc1Cl` (stereo not drawn) has a TGI greater than 100 µM.

Each compound was assayed on CCRF-CEM leukemia (assay: growth of human tumour cells (NCI), 48 h).
With `Cc1c2c(nn1-c1ccc(S(=O)(=O)/N=C3\SCC(=O)N3C(=O)c3ccccc3)cc1)-c1ccccc1CC2` the GI50 was 21 µM and the TGI was 49 µM. With `COc1ccc(C(=O)/C=C/c2cccnc2Nc2cc(OC)c(OC)c(OC)c2)cc1` the GI50 was 0.711 µM and the TGI was 6.15 µM. `CCCCNC(=O)NS(=O)(=O)c1ccc(N2N=C(c3ccc(C)cc3C)CC2c2ccc(N(C)C)cc2)cc1` (stereo not drawn) showed a GI50 of 3.32 µM and a TGI of 46.7 µM. `C#CC[C@]12CC(=O)CC[C@H]1CC(=O)C2` gave a TGI greater than 100 µM. Work on `CNC=O.[O]=[Ge].[O]=[Ge].[O]=[Ge].[O]=[Ge][OH].[O]=[Ge][OH]` yielded a TGI greater than 100 µM. Work on `Cc1cc(NS(=O)(=O)c2ccc(NC(=O)c3cccc4c(=O)c5ccccc5[nH]c34)cc2)no1` yielded a TGI of 94.2 µM. In the case of `COc1ccc(C2CC(=O)c3c(OC)cc(OC)cc3O2)cc1` (stereo not drawn), the GI50 is reported as 4.2 µM and the TGI is reported as greater than 100 µM. Work on `O=C(/C=C/c1ccccc1Cl)c1ccccc1Cl` yielded a TGI of 44.9 µM. Compound `COc1ccc(-c2nc(-c3nc4ccc(C)cc4[nH]3)c3ccccn23)cc1` has a GI50 of 1.97 µM and a TGI of 6.28 µM. `C[C@]12CC[C@@H]3c4ccc(O)cc4C[C@@H](CCCCCCCCCS(=O)CCCC(F)(F)C(F)(F)F)[C@H]3[C@@H]1CC[C@@H]2O` (stereo partly drawn) showed a GI50 greater than 100 µM and a TGI greater than 100 µM. Work on `Cn1cc(C2=C(c3cn(CCCN=C(N)N)c4ccccc34)C(=O)NC2=O)c2ccccc21` yielded a GI50 greater than 25 µM and a TGI greater than 25 µM. `CC#CC(=O)Nc1ccccc1CC(c1c[nH]c2ccccc12)c1c[nH]c2ccccc12` showed a TGI of 39.4 µM. Compound `C[C@]12CC[C@@H]3c4ccc(Oc5nc(N6CC6)nc(N6CC6)n5)cc4CC[C@H]3[C@@H]1CCC2=O` has a GI50 of 1.6 µM and a TGI of 16.2 µM. `COc1cc(C(=O)O[C@H](C(N)=O)[C@]2(C)CO2)c2ccccc2c1` gave a GI50 of 10.9 µM and a TGI of 58 µM. `Cc1cccc(C(C)(C)C)c1NC(=O)CCc1n[nH]c(=S)o1` showed a TGI greater than 100 µM. In the case of `O=S(O)CCCCSSCCCCSSCCCCS(=O)O`, the TGI is reported as 64.6 µM. Compound `CC(=O)SCCC1c2[nH]c3ccccc3c2CCN1O` (stereo not drawn) has a TGI greater than 100 µM. With `CCOC(=O)NC(=O)c1cn(CCCOC(=O)NCCCCCCNC(=O)OCCCn2c(=O)c(C(=O)NC(=O)OCC)cn(C)c2=O)c(=O)n(C)c1=O` the TGI was greater than 100 µM. With `COc1ccc(S(=O)(=O)N(Cc2ccc3c(n2)C=CC(C)(C)O3)C2CCC2)cc1OC` the GI50 was less than 0.01 µM and the TGI was 0.0922 µM. Work on `COc1ccc2cc(C(=O)/C=C/c3cccc(OC)c3OC)ccc2c1` yielded a GI50 of 5.46 µM and a TGI greater than 100 µM. For `CCCCn1c(-c2ccc(C(=O)O/N=C(\N)c3ccc(OC)cc3)cc2)nc(-c2ccccc2)c1-c1ccccc1`, the GI50 was 0.556 µM and the TGI was 2.76 µM. For `CC(C)=CC(=O)N1CCN(C(=O)C=C(C)C)CC1`, the TGI was greater than 100 µM. Work on `C[C@]12CC[C@@H]3c4ccc(O)cc4CC[C@H]3[C@@H]1CC[C@@H]2NS(=O)(=O)c1ccc(C(F)(F)F)cc1` yielded a GI50 of 2.77 µM and a TGI of 9.8 µM. `O=C(CCCSc1nc(-c2ccc(Cl)cc2)cc(-c2ccc(Cl)cc2)n1)NO` gave a GI50 of 0.517 µM and a TGI greater than 100 µM.
